For data set [1], the system named is RAW264.7. Briefly: Antiinflammatory activity in mouse RAW264.7 cells assessed as decrease in LPS-induced IL-6 expression at 40 uM preincubated for 2 hrs followed by LPS-stimulation for 22 hrs by ELISA analysis relative to control. It counts as functional. To be noted: time 24 hrs.
Data set [2] deals with Human immunodeficiency virus 1. Nature of the data set: Antiviral activity against HIV1 VSV-G pseudotyped virus infected in human SUP-T1 cells infected using supernatant of virus-producing 293T cells incubated for 48 hrs by firefly luciferase assay. It counts as functional, organism-based. To be noted: Human immunodeficiency virus 1, SUP-T1, 48 h.
Data set [3] concerns Suid alphaherpesvirus 1. Nature of the data set: Antiviral activity against pseudorabies virus assessed as inhibition of viral growth. Format: functional, organism-based.
The test system of data set [4] is MCF7. Nature of the data set: Cytotoxicity against human MCF7 cells assessed as cell growth inhibition measured after 96 hrs by MTT assay. Format: functional, cell-based. To be noted: MCF7, 96 h.
Data set [5] relates to MGC-803. Nature of the data set: Cytotoxicity against human MGC-803 cells assessed as cell growth inhibition measured after 72 hrs by MTT assay. It counts as functional.
The nature of data set [6]: Toxicity in brine shrimp assessed as induction of lethality. The conditions noted are these: artemia salina; read-out: LD50 (the source's name).
Data set [7] has as its system Clavibacter michiganensis subsp. sepedonicus. Briefly: Antibacterial activity against Clavibacter michiganensis subsp. sepedonicus assessed as inhibition of bacterial growth measured after 18 to 48 hrs. Format: functional. The conditions noted are these: time 18-48 hrs.
A short description of data set [8]: Inhibition of rat intestinal sucrase.
Data set [9] in a line: Inhibition of rat intestinal alpha-glucosidase.
Data set [10] can be described thus: Inhibition of rat intestinal maltase.
The test system of data set [11] is THP-1. Briefly: Cytotoxicity against human THP-1 cells assessed as cell growth inhibition measured after 24 hrs by MTT assay. Format: functional, cell-based. To be noted: THP-1, 24 h.
For data set [12], the system named is HL-60. Nature of the data set: Cytotoxicity against human HL-60 cells assessed as cell growth inhibition measured after 24 hrs by MTT assay. Format: functional, cell-based. To be noted: HL-60, 24 h.
The test system of data set [13] is Fusarium graminearum. Nature of the data set: Antifungal activity Fusarium graminearum assessed as inhibition of fungal growth by microbroth dilution method. Format: functional.
Data set [14] deals with Salmonella typhi. Briefly: Antibacterial activity against Salmonella typhi assessed as reduction in microbial growth by modified broth dilution test. Format: functional, Salmonella enterica subsp. enterica serovar Typhi. To be noted: Salmonella enterica.
Data set [15] concerns SW480. Briefly: Cytotoxicity against human SW480 cells assessed as cell growth inhibition measured after 48 hrs by CCK-8 assay. Format: functional, cell-based. To be noted: SW480, 48 h.
Data set [16] deals with HeLa. Briefly: Cytotoxicity against human HeLa cells assessed as cell growth inhibition measured after 48 hrs by CCK-8 assay. It counts as functional, cell-based.

Structures are written as SMILES. ≈ marks a conversion by molar mass, not a printed value.

With `Cc1oc(=O)c2c(c1C)O[C@@]1(C)[C@@H]([C@@H](C)[C@]3(O)CC(=O)C(C)(C)C(=O)[C@@]3(O)[C@H]1O)[C@H]2O`, the inhibition at 40 µM in data set [1] is 69%.

As to `C/C=C/C=C/C1=C(CO)[C@@H](O)[C@@H](O)[C@@H](CC=C(C)C)C1=O`, it took 18 µM to reach half-maximal inhibition in data set [2] (IC50).

On to `C[C@@H]1Cc2c3c(cc(O)c2C(=O)O1)O[C@]1(C)CCC[C@](C)([C@H]2C[C@@H](O)C2(C)C)[C@H]1C3`, for which the EC50 in data set [3] worked out at 3.35 µM.

As to `CC(C)=CC[C@H]1C(=O)C2=C(CO[C@@H]2CCO)[C@@H](O)[C@H]1O`, the IC50 in data set [4] was found to be 4.2 µM.

With `CC(=O)OC[C@@]1(C)[C@@H]2C[C@H](OC(C)=O)[C@@]3(C)Oc4cc(-c5ccccc5)oc(=O)c4[C@H](O)[C@@H]3[C@@]2(C)C=C[C@@H]1O`, the CC50 in [5] was 19.1 µM.

Regarding `C=C(C)[C@H]1O[C@H]2CC[C@@]3(C)[C@@](O)(CC[C@@]4(O)[C@@H]5OC(C)(C)[C@H]6C[C@@H]7C(=C)Cc8ccc9[nH]c(c5c9c8[C@@]76O)[C@]34C)[C@]23O[C@@H]3[C@H]1O`, in [6], the LC50 was 4.6 µM.

As for `CC1=CC[C@H]2C(C)(C)C(=O)CC[C@]2(C)[C@H]1C[C@@]12O[C@@H]1[C@H](O)C(CO)=C[C@H]2O`, the MIC in [7] was determined as 9.48 µg/mL (≈ 25.2 µM). Regarding `C/C(=C\CC/C(=C/Cc1cc(O)ccc1O)C(=O)O)CC[C@@H](O)C(C)(C)O`, the figures for the IC50 in data set [8], in data set [9] and in data set [10] were 14.6 µM, 18.1 µM and 11.1 µM, respectively.

`COC(=O)CC1=C(C)[C@@H]2C[C@@]3(C)C(=O)O[C@H]4O[C@@H](C)C(=O)[C@](C(=O)OC)([C@H]43)[C@@]2(C)CC=C1C(C)(C)OC`: the IC50 stood at 11.3 µM in data set [11] and 7.9 µM in data set [12]. As for `Cc1oc(=O)c2c(c1C)O[C@]1(C)[C@H](O)[C@@H]3O[C@](O)(CC[C@H](C)[C@H]1C2)C(C)(C)C3=O`, the MIC in data set [13] and in data set [14] was 12.5 µg/mL each time. As for `C[C@]1(O)C=Cc2cc(C(=O)O)ccc2OC1`, the half-maximal inhibitory concentration (IC50) was found to be 16.3 µM in [15] and 38.6 µM in [16].
